Data on three compounds can be found in paper PMC7375020 (Frontiers in Cell and Developmental Biology, 2020).

Marks after values point to notes of the source that are not given here.

Series [1] deals with T1, HDAC8 (Homo sapiens, UniProt Q9BY41).
T1 sequence (Q9BY41 1-377): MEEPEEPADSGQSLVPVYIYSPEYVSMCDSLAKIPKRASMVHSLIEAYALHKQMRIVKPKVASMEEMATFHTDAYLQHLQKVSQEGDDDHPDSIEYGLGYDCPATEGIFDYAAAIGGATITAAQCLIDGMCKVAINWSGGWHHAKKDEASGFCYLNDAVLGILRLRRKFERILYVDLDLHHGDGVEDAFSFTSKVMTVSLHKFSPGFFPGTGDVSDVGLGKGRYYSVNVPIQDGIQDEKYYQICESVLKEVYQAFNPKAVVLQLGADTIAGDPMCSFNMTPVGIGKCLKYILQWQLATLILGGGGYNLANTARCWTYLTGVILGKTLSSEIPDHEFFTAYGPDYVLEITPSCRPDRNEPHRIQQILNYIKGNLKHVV
Briefly: In vitro HDAC inhibition fluorescent assay, HDAC8. It is filed as biochemical. Particulars: Boc-Lys(trifluoroacetyl)-AMC substrate. On the procedure: (§1) An aliquot of 10 μL of enzyme solution (HeLa cell nuclear extract, HDAC2, HDAC6, or HDAC8) was mixed with different concentrations of test compound (50 μL). The mixture was incubated at 37°C for 5 min, followed by the addition of 40 μL of fluorogenic substrate tert-butyl (S)-(6-acetamido- 1-((4-methyl-2-oxo-2H-chromen-7-yl)amino)-1-oxohexan-2-yl) carbamate (Boc-Lys(acetyl)-AMC) for HeLa cell nuclear extracts, HDAC2, and HDAC6; tert-butyl (S)-(1-((4-methyl- 2-oxo-2H-chromen-7-yl)amino)-1-oxo-6-(2,2,2-trifluoroacetam ido)hexan-2-yl)carbamate (Boc-Lys(trifluoroacetyl)-AMC) for HDAC8). After incubation at 37°C for 30 min, the mixture was quenched by the addition of 100 μL of developer containing trypsin and trichostatin A. Following incubation at 37°C for 20 min, the fluorescence intensity was measured using a microplate reader at excitation and emission wavelengths of 390 and 460 nm, respectively. The inhibition ratios were calculated from the fluorescence intensity readout of tested wells relative to those of control wells, and the half maximal inhibitory concentration (IC50) values were calculated using the prism non-linear curve-fitting method.

The subject of series [2] is tested human cancer cell lines. Briefly: In vitro antiproliferative assay (MTT), all tested tumor cell lines. The class given is cell-based. On the procedure: All cell lines were maintained in Roswell Park Memorial Institute (RPMI) 1640 medium containing 10% fetal bovine serum at 37°C in a 5% CO2 humidified incubator. The cell proliferation assay was determined by the MTT (3-[4,5-dimethyl-2-thiazolyl]-2,5-diphenyl-2H-tetrazolium bromide) method. Briefly, cells were passaged the day before dosing into a 96-well plate, allowed to grow for 12 h, and then treated with different concentrations of compound for 72 h. A 0.5% MTT solution was added to each well. After incubation for another 4 h, formazan formed from MTT was extracted by adding 200 μL of DMSO. Absorbance was then determined using a microplate reader at 570 nm.

Series [3] concerns HEL. Kind of series: In vitro antiproliferative assay (MTT), HEL. It is filed as cell-based. Particulars: Homo sapiens, 72 h. On the procedure:
(§2) The cell proliferation assay was determined by the MTT (3-[4,5-dimethyl-2-thiazolyl]-2,5-diphenyl-2H-tetrazolium bromide) method. Briefly, cells were passaged the day before dosing into a 96-well plate, allowed to grow for 12 h, and then treated with different concentrations of compound for 72 h. A 0.5% MTT solution was added to each well. After incubation for another 4 h, formazan formed from MTT was extracted by adding 200 μL of DMSO. Absorbance was then determined using a microplate reader at 570 nm.

The test system of series [4] is MOLT-4. Kind of series: In vitro antiproliferative assay (MTT), MOLT-4. It is filed as cell-based. The conditions noted are these: Homo sapiens, 72 h. On the procedure: as §2
The target in series [5] is HDAC2 (Homo sapiens, UniProt Q92769). Kind of series: In vitro HDAC inhibition fluorescent assay, HDAC2. It is filed as biochemical. The conditions noted are these: Boc-Lys(acetyl)-AMC substrate. On the procedure:
as §1

Series [6] has as its system MCF-7. Kind of series: In vitro antiproliferative assay (MTT), MCF-7. The class given is cell-based. The conditions noted are these: Homo sapiens, MCF7, 72 h. On the procedure: as §2
The subject of series [7] is SK-N-BE(2). Briefly: In vitro antiproliferative assay (MTT), SK-N-BE(2). The class given is cell-based. The conditions noted are these: Homo sapiens, SKNBE2, 72 h. The procedure: as §2
Series [8] relates to MDA-MB-231. Kind of series: In vitro antiproliferative assay (MTT), MDA-MB-231. The conditions noted are these: Homo sapiens, 72 h. It is filed as cell-based. The procedure: as §2
In series [9] the test system is PC-3. Kind of series: In vitro antiproliferative assay (MTT), PC-3. The class given is cell-based. The conditions noted are these: Homo sapiens, 72 h. On the procedure: as §2
Series [10] concerns acetyl-histone H4 and acetyl-α-tubulin in MDA-MB-231 cells. Briefly: Western blot analysis of intracellular HDAC inhibition. The class given is cell-based, human. The conditions noted are these: for level of acetyl-histone H4 / level of acetyl-α-tubulin: 3 h, immunoblot. On the procedure: The MDA-MB-231 cells were treated with compounds or DMSO for a specified period of time. Then the cells were washed twice with cold phosphate-buffered saline (PBS) and lysed in ice-cold radioimmunoprecipitation assay (RIPA) buffer. Lysates were cleared by centrifugation. Protein concentrations were determined using the bicinchoninic acid assay. Equal amounts of cell extracts were then resolved by sodium dodecyl sulfate–polyacrylamide gel electrophoresis, transferred to nitrocellulose membranes, and probed with acetyl-histone H4 antibody (intracellular substrate of HDAC1 and HDAC2), acetyl-α-tubulin antibody (intracellular substrate of HDAC6), and β-actin antibody (used as a loading control), respectively. Blots were detected using an enhanced chemiluminescence system.
Background: In western blotting, separated proteins are transferred to a membrane and probed.

Series [11] concerns the target T2, HDAC6 (Homo sapiens, UniProt Q9UBN7).
T2 sequence (Q9UBN7 1-1215): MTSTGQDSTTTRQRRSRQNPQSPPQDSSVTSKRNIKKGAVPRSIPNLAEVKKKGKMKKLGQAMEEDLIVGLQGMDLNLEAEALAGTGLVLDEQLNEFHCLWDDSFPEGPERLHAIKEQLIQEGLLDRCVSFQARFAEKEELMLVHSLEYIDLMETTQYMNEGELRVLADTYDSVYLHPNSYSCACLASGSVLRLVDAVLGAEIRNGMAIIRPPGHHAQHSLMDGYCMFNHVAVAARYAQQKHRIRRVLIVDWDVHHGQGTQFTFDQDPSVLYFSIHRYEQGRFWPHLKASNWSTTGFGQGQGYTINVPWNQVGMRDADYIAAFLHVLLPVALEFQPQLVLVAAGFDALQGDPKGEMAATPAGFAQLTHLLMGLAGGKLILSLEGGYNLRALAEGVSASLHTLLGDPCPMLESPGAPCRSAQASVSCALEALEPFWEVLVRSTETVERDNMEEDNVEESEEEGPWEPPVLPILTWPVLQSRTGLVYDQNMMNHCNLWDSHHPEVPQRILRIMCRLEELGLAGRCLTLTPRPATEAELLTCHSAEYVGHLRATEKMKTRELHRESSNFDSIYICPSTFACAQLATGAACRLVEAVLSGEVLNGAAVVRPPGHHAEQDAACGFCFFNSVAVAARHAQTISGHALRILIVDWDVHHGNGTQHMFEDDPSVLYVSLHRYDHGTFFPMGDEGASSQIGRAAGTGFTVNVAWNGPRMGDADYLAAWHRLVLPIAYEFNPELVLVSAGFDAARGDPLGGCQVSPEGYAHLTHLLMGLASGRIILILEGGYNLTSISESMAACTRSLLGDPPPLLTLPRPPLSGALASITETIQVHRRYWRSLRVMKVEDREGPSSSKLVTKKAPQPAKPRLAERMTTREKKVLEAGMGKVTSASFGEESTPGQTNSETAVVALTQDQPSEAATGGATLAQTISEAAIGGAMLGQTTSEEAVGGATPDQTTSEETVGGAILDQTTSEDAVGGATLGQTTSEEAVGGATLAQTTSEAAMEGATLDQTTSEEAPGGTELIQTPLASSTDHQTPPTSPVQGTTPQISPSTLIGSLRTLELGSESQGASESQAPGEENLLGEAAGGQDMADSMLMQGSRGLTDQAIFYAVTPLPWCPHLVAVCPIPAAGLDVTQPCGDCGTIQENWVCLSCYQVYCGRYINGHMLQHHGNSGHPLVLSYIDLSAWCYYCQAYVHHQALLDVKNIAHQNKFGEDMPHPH
Briefly: In vitro HDAC inhibition fluorescent assay, HDAC6. The class given is biochemical. The conditions noted are these: Boc-Lys(acetyl)-AMC substrate. The procedure:
as §1

For series [12], the system named is HeLa cell nuclear extract. Kind of series: In vitro HDAC inhibition fluorescent assay, total HDAC. It is filed as biochemical. Particulars: Boc-Lys(acetyl)-AMC substrate. On the procedure:
as §1

Series [13] relates to KG-1. Briefly: In vitro antiproliferative assay (MTT), KG-1. The conditions noted are these: Homo sapiens, 72 h. The class given is cell-based. On the procedure: as §2
The test system of series [14] is MDA-MB-231 xenograft. It is filed as in vivo. The conditions noted are these: oral 30 mg/kg/day. On the procedure: Ten days after injection, tumors were palpable and mice were randomized into treatment and control groups (six mice per group). […] Subcutaneous tumors were measured with a vernier caliper every 3 days. Tumor volumes (V) were estimated using the equation (V = ab^2/2, where a and b are the longest and shortest diameter, respectively). The body weight of the mice was also monitored regularly. At the end of the experimental period, mice were sacrificed and the tumor tissues were dissected and weighed. Tumor growth inhibition (TGI) and the relative increment ratio (T/C) were calculated at the end of treatment to reveal the antitumor effects in tumor weight and tumor volume, respectively.
• TGI = (the mean tumor weight of control group – the mean tumor weight of treated group)/the mean tumor weight of control group. • T/C = the mean RTV of treated group (T)/the mean RTV of blank control group (C).
where the relative tumor volume (RTV) is Vt/V0 (Vt is the tumor volume measured at the end of treatment; V0 is the tumor volume measured at the beginning of the treatment).
All the obtained data were used to evaluate the antitumor potency and toxicity of compounds. Data were analyzed by Student’s one-tailed t-test.

The nature of series [15]: In vitro metabolic stability assay in human liver microsomes. It is filed as in vitro ADME. Particulars: with NADPH, 37°C, LC-MS/MS, read-out: t1/2 Human liver microsomes. On the procedure:
(§3) Human liver microsomes containing compound 1 were incubated with NADPH at 37°C. At the specific time points, samples were added to acetonitrile to terminate the reaction, then subjected to vortex mixing for 5 min and stored in a freezer at –80°C. Before analysis, the samples were centrifuged. The remainder of 1 in the supernatants was analyzed by LC-MS/MS. The t1/2(half–time) values were calculated using the equation t1/2 = −0.693/k, where k is the slope found in the linear fit of the natural logarithm of the fraction remaining of compound 1 versus incubation time.
A general note: Microsomes from liver hold many membrane-bound enzymes, among them those of drug oxidation.

Series [16] in a line: In vitro metabolic stability assay in human plasma. It is filed as in vitro ADME. Particulars: 37°C, LC-MS/MS, read-out: t1/2 Human plasma. The procedure:
as §3, with “Human plasma samples” for “Human liver microsomes”, “incubated” for “incubated with NADPH”, “by liquid chromatography with tandem mass spectrometry (LC-MS/MS).” for “by LC-MS/MS.”, “equation t1/2(half–time)” for “equation t1/2”

Details of series [17]: method as in Konsoula and Jung, 2008. Particulars: reported data of vorinostat; ref Konsoula and Jung, 2008; cited from earlier work.

Sequence of HDAC2 (Q92769 whole entry, species assumed): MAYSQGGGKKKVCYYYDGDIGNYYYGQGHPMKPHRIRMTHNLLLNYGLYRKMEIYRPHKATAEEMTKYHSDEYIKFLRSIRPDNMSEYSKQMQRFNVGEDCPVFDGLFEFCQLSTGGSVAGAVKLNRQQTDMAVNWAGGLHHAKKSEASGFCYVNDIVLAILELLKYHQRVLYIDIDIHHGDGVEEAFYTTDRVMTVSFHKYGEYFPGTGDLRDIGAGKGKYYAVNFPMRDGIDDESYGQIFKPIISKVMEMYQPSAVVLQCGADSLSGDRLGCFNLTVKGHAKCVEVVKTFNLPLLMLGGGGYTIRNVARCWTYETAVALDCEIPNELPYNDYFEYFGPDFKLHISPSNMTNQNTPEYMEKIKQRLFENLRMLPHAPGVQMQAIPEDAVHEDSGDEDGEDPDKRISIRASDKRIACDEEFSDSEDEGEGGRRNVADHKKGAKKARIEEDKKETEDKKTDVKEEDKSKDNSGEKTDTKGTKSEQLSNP

What is called IC50 is the concentration that gives 50% inhibition. For the compound `O=C(CCCCCCC(=O)Nc1nc2ccc(OC(F)(F)F)cc2s1)NO` [Compound 1, N1-Hydroxy-N8-(6-(Trifluoromethoxy)benzo[d]thiazol-2-yl) Octanediamide], the IC50 in series [1] is 3.3 ± 0.2 µM; in series [2] (range over MDA-MB-231, MCF-7, PC-3, SK-N-BE(2), KG-1, MOLT-4, HEL, read-out: IC50 values across all tested human cancer cell lines), 0.14 to 2.74 µM; in [3], 0.14 ± 0.007 µM; in series [4], 0.17 ± 0.007 µM; in [5] it was 0.33 ± 0.04 µM; in [6] it was 2.74 ± 0.06 µM. Further, the IC50 stood at 0.29 ± 0.007 µM in series [7]; 0.77 ± 0.02 µM in [8]; 2.52 ± 0.33 µM in series [9]; 0.012 ± 0.002 µM in series [11]; 0.12 ± 0.01 µM in [12]; 0.65 ± 0.02 µM in [13]. Further, the “level of acetyl-histone H4” value in [10] is on record as “dramatically increase”. In series [10], the “level of acetyl-α-tubulin” value is on record as “dramatically increase”. The “effect on acetyl-α-tubulin compared with vorinostat” value in series [10] (same concentration of 0.5 μM) is reported as “superior to that of vorinostat”. For the same compound, the “T/C (relative increment ratio, tumor volume)” value in series [14] (21 consecutive days, nude mice) was found to be 55%. In series [14] (21 consecutive days, nude mice), the “TGI (tumor growth inhibition, tumor weight)” value stood at 59%. In series [14] (21 days, Figure 6), the “mouse body weights (tolerability)” value is “high tolerability and low toxicity”. The half-life in series [15] is 56 min; in [16] it was greater than 120 min.

The term inhibition denotes the drop in the measured response relative to a control, in per cent. For the compound `Nc1nc2ccc(OC(F)(F)F)cc2s1` [Riluzole, reference compound], the inhibition at 10 µM in [2] (at 10 μM, tested tumor cell lines, read-out: growth inhibition) is less than 50%. The IC50 in series [3], in series [8], in series [9] and in series [13] was greater than 10 µM throughout.

On to `O=C(CCCCCCC(=O)Nc1ccccc1)NO` [Vorinostat, suberoylanilide hydroxamic acid, reference compound], for which, in series [10], the “level of acetyl-histone H4” value is given as “dramatically increase” and the “level of acetyl-α-tubulin” value is “dramatically increase”. Further, in series [17], the “t1/2 Human plasma” value is 75^b min.
